What was measured:
TRPV4 = molecular target: T1, TRPV4 (Mus musculus, UniProt Q9EPK8); test: Calcium imaging of TRPV4-mediated [Ca2+]i in pancreatic acini (agonists, shear stress, Yoda1 sustained phase); format: cell-based; settings: for agonist effect on [Ca2+]i: GSK101 50 nM, arachidonic acid 20 μM, 5′,6′-EET 5 μM
T1 construct: endogenous in cells; host or cells: freshly isolated mouse pancreatic acini (C57BL/6J WT)
Experimental: (§1) Mouse pancreatic acini were isolated using a standard collagenase digestion protocol. Isolated acini were plated on a thin-layered, Matrigel-coated, glass-bottom, culture plate (MatTek, P35G-0-14-C). Freshly isolated acini were used in each experiment.
Parallel-plate fluid flow chambers (μ-Slide I 0.4 Luer, and μ-Slide I 0.2 Luer from Ibidi GmbH) were used to measure the shear stress-induced changes in intracellular calcium, mitochondrial depolarization, and trypsin activation. The constant flow rate with shear stress (T) was determined as follows: τ=η×[…] φ for μ-Slide I 0.4 Luer and τ=η×330.4 φ for μ-Slide I 0.2 Luer, where η=viscosity of the medium and φ=flow rate (according to the manufacturer's instructions, Ibidi).
(§2) Calcium imaging in pancreatic acini was performed as previously described. The chemicals used in calcium imaging experiments included the following: Yoda1 (Tocris; 5586), GsMTx4 (Abcam; ab141871), 5′,6′-EET (Santa Cruz Biotechnology; sc-221066), AA (Millipore Sigma; A3611), HC067047 (Tocris; 4100), GSK1016790A (Millipore Sigma; G0798), RN1734 (Tocris; 3746), AACOCF3 (Tocris; 1462), YM26734 (Tocris; 2522), GF109203X (Tocris; 0741), and CCK8 (Sigma-Aldrich).

Piezo1 [1] = molecular target: T2, Piezo1 (Mus musculus, UniProt E2JF22); test: Calcium imaging of Piezo1-mediated [Ca2+]i in mouse PSCs; format: cell-based; settings: for effect on Yoda1-mediated sustained [Ca2+]i elevation, YM26734 and AACOCF3 together: YM26734 10 μM + AACOCF3 30 μM, Yoda1 25 μM, PSCs from WT mice
T2 construct: endogenous in cells; host or cells: freshly isolated mouse pancreatic acini (WT = Piezo1 fl/fl on a C57BL/6J background)
T2 sequence (E2JF22 whole entry): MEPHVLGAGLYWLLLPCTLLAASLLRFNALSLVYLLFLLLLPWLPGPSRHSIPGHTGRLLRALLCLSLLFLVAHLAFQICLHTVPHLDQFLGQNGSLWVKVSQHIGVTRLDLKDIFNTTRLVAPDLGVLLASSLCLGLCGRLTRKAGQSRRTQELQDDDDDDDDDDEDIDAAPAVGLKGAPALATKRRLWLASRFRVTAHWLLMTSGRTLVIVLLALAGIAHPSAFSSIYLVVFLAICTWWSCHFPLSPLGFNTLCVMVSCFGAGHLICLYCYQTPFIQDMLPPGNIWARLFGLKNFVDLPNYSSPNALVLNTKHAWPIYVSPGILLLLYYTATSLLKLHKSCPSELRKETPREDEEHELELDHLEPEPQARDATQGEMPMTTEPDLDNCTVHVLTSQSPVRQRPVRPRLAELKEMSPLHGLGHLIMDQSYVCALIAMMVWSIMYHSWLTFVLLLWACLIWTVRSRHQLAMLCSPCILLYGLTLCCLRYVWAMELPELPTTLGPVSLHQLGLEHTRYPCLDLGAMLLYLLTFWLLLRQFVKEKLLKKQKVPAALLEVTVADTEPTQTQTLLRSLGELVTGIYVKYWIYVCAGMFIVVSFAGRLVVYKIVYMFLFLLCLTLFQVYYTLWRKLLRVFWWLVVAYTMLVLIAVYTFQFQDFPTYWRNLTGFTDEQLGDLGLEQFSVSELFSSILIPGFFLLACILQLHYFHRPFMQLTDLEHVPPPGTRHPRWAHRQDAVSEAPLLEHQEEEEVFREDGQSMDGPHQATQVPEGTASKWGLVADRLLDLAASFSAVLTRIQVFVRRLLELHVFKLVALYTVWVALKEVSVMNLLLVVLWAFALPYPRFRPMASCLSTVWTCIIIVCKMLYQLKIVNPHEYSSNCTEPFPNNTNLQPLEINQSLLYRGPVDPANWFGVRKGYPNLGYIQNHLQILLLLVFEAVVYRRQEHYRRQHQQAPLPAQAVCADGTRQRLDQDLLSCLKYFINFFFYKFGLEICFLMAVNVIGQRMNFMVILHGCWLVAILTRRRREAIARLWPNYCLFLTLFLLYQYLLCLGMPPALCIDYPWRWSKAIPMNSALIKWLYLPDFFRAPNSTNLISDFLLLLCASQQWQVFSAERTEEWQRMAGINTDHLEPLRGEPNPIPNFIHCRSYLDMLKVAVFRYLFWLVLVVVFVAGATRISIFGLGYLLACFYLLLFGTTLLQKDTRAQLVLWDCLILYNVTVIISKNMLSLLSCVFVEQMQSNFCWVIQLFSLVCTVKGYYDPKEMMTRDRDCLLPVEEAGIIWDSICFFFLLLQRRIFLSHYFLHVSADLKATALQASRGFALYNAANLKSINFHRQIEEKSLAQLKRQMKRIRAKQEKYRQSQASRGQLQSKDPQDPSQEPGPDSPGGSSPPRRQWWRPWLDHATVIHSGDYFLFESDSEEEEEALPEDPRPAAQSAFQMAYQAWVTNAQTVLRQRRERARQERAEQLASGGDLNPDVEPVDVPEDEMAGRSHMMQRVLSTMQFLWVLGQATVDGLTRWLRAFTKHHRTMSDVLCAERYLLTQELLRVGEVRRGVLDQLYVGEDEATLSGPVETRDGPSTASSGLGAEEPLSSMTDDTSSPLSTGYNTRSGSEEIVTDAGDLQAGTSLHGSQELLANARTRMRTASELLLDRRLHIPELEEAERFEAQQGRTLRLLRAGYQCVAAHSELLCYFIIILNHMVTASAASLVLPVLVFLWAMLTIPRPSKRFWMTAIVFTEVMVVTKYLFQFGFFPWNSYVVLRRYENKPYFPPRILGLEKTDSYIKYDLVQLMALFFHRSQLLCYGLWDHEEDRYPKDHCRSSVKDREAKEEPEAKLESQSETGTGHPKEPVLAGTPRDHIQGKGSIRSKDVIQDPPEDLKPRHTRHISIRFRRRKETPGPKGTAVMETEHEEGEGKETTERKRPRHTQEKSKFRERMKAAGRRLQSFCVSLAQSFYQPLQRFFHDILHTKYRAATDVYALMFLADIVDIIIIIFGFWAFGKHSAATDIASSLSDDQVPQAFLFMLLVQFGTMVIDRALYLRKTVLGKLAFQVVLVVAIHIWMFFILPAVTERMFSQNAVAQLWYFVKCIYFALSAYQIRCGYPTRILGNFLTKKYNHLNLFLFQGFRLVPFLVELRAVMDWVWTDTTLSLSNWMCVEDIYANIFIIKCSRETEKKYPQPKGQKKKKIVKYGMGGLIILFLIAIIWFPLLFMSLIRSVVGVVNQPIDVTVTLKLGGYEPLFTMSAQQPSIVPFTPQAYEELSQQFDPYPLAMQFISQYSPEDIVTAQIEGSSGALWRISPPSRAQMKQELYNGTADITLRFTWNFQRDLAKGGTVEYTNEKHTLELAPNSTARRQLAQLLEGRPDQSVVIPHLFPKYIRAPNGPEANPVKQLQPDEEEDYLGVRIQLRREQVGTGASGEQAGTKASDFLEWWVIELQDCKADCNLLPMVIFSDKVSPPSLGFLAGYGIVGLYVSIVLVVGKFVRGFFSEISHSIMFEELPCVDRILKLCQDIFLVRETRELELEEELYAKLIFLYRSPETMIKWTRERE
Experimental: Mouse and human PSCs were isolated using collagenase digestion. Modified Krebs Henseleit Buffer (KHB) solution (100 mL) was prepared as previously described by Romac et al., Nat. Commun. 9(1):1715 (2018). Pancreatic tissue was digested with 2 mg of collagenase NB 8 (SERVA, catalog 17456) dissolved in 10 mL of modified KHB solution containing 1 mg soybean trypsin inhibitor (SBTI 1-S; Millipore Sigma, catalog T9003) and 20 mg BSA (Thermo Fisher Scientific; BP1600-100). Digestion solution (5 mL) was used to inflate the pancreas. Pancreas with 5 mL of digestion solution was incubated in a shaking water bath for 10 minutes at 37° C. The solution was then discarded. The pancreas tissue was cut into small pieces and digested with fresh 5 mL digestion buffer. Tissue was incubated in a shaking water bath for 40 minutes at 37° C. The cells were then separated from tissue by pipetting up-down with a 10 mL pipette and passed sequentially through a 70 μm and a 40 μm cell strainer. The filtrate was centrifuged at 150×g for 3 minutes at room temperature. The cells were washed with 10 mL Leibovitz's media (Thermo Fisher Scientific, catalog 11415-064), passed through a 20 μm filter, and centrifuged at 80×g for 3 minutes at room temperature. The supernate was removed, and isolated stellate cells were plated on a thin-layered Matrigel-coated glass bottom culture plate (MatTek, P35G-0-14-C). Before plating the cells, Matrigel solution (Corning, catalog 354234) at a ratio of 1.5:100 DMEM/F12 (Thermo Fisher Scientific, catalog 11330-032) was poured onto the culture plate and incubated for 2 hr at 37° C. to form a thin layer of Matrigel coating. Matrigel mixture was removed, and the plate was washed with PBS before cells were plated. Cell culture media, DMEM/F12 with 5% FBS was used for mouse stellate cells. Fresh, human pancreatic tissue was digested with collagenase as described above with modifications. Collagenase (2.5 mg) in 10 mL of modified KHB solution was used for digestion. The digested tissues were filtered through a 100 μm cell strainer. The cells were cultured with DMEM/F12 with 10% FBS in a Matrigel-coated plate. After 24 hr, the cell media was replaced with fresh media to remove unattached and dead cells. After 2 days, cells were immunostained for GFAP and used for experiments. Perinuclear fat droplets were stained with BODIPY 493/503 (4,4-Difluoro-1,3,5,7,8-Pentamethyl-4-Bora-3a,4a-Diaza-s-Indacene; Invitrogen, catalog D3922) to confirm stellate cell quiescence. The cell viability following Yoda1 treatment was analyzed using the Live/Dead cell imaging kit (Thermo Fisher Scientific, catalog R37601). RNAs were isolated using the RiboPure Kit (Invitrogen, catalog AM1924) according to manufacturer's instructions.
Fluid shear stress and mechanical pushing applied to stellate cells were achieved as previously described by Wang et al., J. Clin. Invest. 126(12): 4527-4536 (2016). Parallel-plate fluid flow chambers (μ-Slide I 0.4 Luer, or μ-Slide I 0.2 Luer from Ibidi) were used for fluid shear stress experiments. The fluid shear stress (T) was calculated using the formula: τ=η×[…] φ for μ-Slide I 0.4 Luer and τ=η×330.4 φ for μ-Slide I 0.2 Luer, where r represents viscosity of the medium and φ represents flow rate (according to the manufacturer's instructions, Ibidi). Mechanical pushing was achieved by applying a blunt borosilicate glass pipette once to the cell membrane with a deflection of 2-3 μm for 1 second using a micromanipulator (World Precision Instruments).
Calcium 6-QF (Molecular Devices) dye was used for live-cell calcium imaging as described by Romac et al., Nat. Commun. 9(1):1715 (2018). Cells were imaged in HBSS buffer with 2 mM Ca^2+. Faintly and highly fluorescent loaded cells were excluded from analysis. […]

Piezo1 [2] = molecular target: T2, Piezo1; test: Calcium imaging of Yoda1 (Piezo1)-mediated [Ca2+]i in pancreatic acini; format: cell-based; settings: for effect on Yoda1-induced sustained [Ca2+]i elevation, YM26734 and AACOCF3 together: YM26734 10 μM + AACOCF3 30 μM, preincubated 10 minutes; for effect of protein kinase A and C blockers on Yoda1-induced sustained calcium elevation: KT5720 5 μM, GF109203X 20 μM
Experimental: as §1, §2

pancreatic acini [3] = test: Cell death assays of pancreatic acini (LDH release, Live/Dead, live-cell imaging); format: cell-based
Experimental: The viability of pancreatic acini with Yoda1 and CCK treatments was analyzed using the Live/Dead Cell Imaging Kit (Thermo Fisher Scientific, catalog R37601) or the LDH Release Assay Kit (Promega, catalog G1780).

pancreatic acini [4] = test: Mitochondrial depolarization in pancreatic acini (TMRE); format: cell-based, mouse
Experimental: Live-cell mitochondrial depolarization was analyzed using the mitochondrial labeling dye, TMRE. Isolated acini were plated on a thin-layered, Matrigel-coated, glass-bottom culture plate with DMEM/F12 and 10% FBS media and placed in a CO2 incubator for 1 hr at 37° C. After 1 hr, the acini were incubated with TMRE (200 nM) in the bath buffer containing 140 mM NaCl, 4.7 mM KCl, 2.0 CaCl2, 1 mM MgCl2, 10 mM HEPES, and 10 mM glucose (pH adjusted to 7.4 with NaOH) for 30 minutes. The TMRE dye was washed and replaced with fresh bath buffer. The images were captured with a Zeiss Axio observer Z1 microscope with MetaMorph software (Molecular Devices) at intervals of 600 ms. TMRE was excited at 540-600 nm and emission collected at 585-675 nm. Carbonyl cyanide 4-(trifluoromethoxy) phenylhydrazone (FCCP), which uncouples the oxidative phosphorylation process and depolarizes mitochondria, was used as a positive control. A maximum of 2 mitochondrial puncta were taken per acinar cell.

pancreatic acini [5] = test: CCK-induced [Ca2+]i in pancreatic acini; format: cell-based, mouse; design: effect on CCK-induced sustained [Ca2+]i elevation: dose or concentration left out as unconfirmed
Experimental: as §1, §2

pancreatic acini [6] = test: Trypsinogen activation in pancreatic acini (BZiPAR); format: cell-based, mouse
Experimental: To visualize Piezo1-induced trypsinogen activation, acini were loaded with active trypsin enzyme substrate BZiPAR (10 μM). Na-HEPES buffer with 2 mM Ca^2+ was used during imaging. A Zeiss Axio observer Z1 with a high-sensitivity EMCCD camera with a ×40/0.75 EC-Plan-NeoFluar DIC objective was used to capture the Z-stack images with stack thickness of 3 μm at an interval of 12 seconds. The BZiPAR fluorescent wavelength Ex/Em was 498/521 nm. BZiPAR was excited at 470-510 nm and emission collected at 495-550 nm. The captured images were analyzed with MetaMorph software (Molecular Devices).

T1 sequence (Q9EPK8 whole entry): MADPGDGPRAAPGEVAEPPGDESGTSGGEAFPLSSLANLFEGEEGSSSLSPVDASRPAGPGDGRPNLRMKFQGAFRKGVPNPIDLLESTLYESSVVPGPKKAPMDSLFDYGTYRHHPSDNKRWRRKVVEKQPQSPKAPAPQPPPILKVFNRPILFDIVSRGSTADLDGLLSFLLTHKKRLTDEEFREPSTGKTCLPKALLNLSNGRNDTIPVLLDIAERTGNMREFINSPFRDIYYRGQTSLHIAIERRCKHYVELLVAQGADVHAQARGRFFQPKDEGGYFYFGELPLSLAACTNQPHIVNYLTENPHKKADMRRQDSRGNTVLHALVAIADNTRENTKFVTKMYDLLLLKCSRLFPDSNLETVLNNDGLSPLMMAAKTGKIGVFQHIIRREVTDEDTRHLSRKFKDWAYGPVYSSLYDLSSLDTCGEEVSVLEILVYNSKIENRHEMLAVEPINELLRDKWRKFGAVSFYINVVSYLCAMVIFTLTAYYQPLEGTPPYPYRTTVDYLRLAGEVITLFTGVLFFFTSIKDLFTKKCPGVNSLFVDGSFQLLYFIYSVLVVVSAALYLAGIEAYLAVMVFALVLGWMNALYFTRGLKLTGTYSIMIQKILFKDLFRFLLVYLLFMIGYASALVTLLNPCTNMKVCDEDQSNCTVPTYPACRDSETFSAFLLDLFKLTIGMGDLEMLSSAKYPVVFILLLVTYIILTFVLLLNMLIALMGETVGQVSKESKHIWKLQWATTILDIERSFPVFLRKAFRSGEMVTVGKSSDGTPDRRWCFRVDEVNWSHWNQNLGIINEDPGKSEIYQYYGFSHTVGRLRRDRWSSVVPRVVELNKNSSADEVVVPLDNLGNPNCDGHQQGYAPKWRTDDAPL

`CCCCC/C=C\C/C=C\C/C=C\CC1OC1CCCC(=O)O` (stereo not drawn) [5′,6′-EET, 5′,6′-epoxyeicosatrienoic acid] was tested, and the “agonist effect on [Ca2+]i” value (TRPV4) was “induced significant increases in [Ca^2+]i”.

`CCCCC/C=C\C/C=C\C/C=C\C/C=C\CCCC(=O)O` [AA, arachidonic acid] was tested, and the “agonist effect on [Ca2+]i” value (TRPV4) was “induced significant increases in [Ca^2+]i”.

For `CCCCC/C=C\C/C=C\C/C=C\C/C=C\CCCC(=O)C(F)(F)F` [AACOCF3], the “effect on Yoda1-mediated sustained [Ca2+]i elevation, YM26734 and AACOCF3 together” value (Piezo1 [1]) was “significantly inhibited the Yoda1-mediated sustained elevation in [Ca^2+]i” and the “effect on Yoda1-induced sustained [Ca2+]i elevation, YM26734 and AACOCF3 together” value (Piezo1 [2]; Yoda1 25 μM) was “blocked the Yoda1-induced sustained [Ca^2+]i elevation”.

For `CC(=O)OCOC(=O)CN(CC(=O)OCOC(C)=O)c1ccccc1OCCOc1ccccc1N(CC(=O)OCOC(C)=O)CC(=O)OCOC(C)=O` [BAPTA-AM], the “effect on Yoda1-induced LDH release” value (pancreatic acini [3]; BAPTA-AM preincubated 30 minutes, Yoda1 50 μM) was “protected pancreatic acini from Yoda1-induced LDH release”, the “effect on Yoda1-induced mitochondrial depolarization” value (pancreatic acini [4]; BAPTA-AM 20 μM preincubated 20 minutes) was “protected from Yoda1-induced mitochondrial depolarization” and the “effect on Yoda1-induced sustained Ca2+ rise” value (Piezo1 [2]; BAPTA-AM 20 μM preincubated 30 minutes, Yoda1 50 μM) was “abolished the sustained Ca^2+ rise”. The “effect on CCK-induced [Ca2+]i” value (pancreatic acini [5]; BAPTA-AM 20 μM preincubated 30 minutes, CCK 1 nM) was “completely eliminated the effect of CCK on [Ca^2+]i”.

In the case of `Cc1cccc(F)c1C(=O)Nc1cnc(-c2cc3c(cc2Cl)OC(F)(F)O3)cn1` [CM4620], the “effect on Yoda1-induced [Ca2+]i rise” value (Piezo1 [2]; CM4620 5 μM preincubated 1 hr, Yoda1 25 μM) is reported as “did not alter the rise in [Ca^2+]i following Yoda1 stimulation”, the “effect on CCK-induced sustained [Ca2+]i elevation” value (pancreatic acini [5]; CM4620 preincubated 1 hr, CCK) is reported as “blocked the sustained elevation in [Ca^2+]i produced by CCK” and the “completeness of block of CCK-induced [Ca2+]i rise” value (pancreatic acini [5]; CM4620 preincubated 1 hr, either concentration of CCK, residual calcium wave) is reported as “did not completely block the [Ca^2+]i rise”.

`CN(C)CCCn1cc(C2=C(c3c[nH]c4ccccc34)C(=O)NC2=O)c2ccccc21` [GF109203X] was tested, and the “effect of protein kinase A and C blockers on Yoda1-induced sustained calcium elevation” value (Piezo1 [2]) was “did not significantly affect the Yoda1-induced sustained calcium elevation”.

In the case of `CCCCCCOC(=O)[C@]1(O)C[C@@H]2O[C@@]1(C)n1c3ccccc3c3c4c(c5c6ccccc6n2c5c31)C(=O)NC4` [KT5720], the “effect of protein kinase A and C blockers on Yoda1-induced sustained calcium elevation” value (Piezo1 [2]) is reported as “did not significantly affect the Yoda1-induced sustained calcium elevation”.

`CC(C)NCCN(C(C)C)S(=O)(=O)c1ccc(Cl)cc1Cl` [RN1734] was tested, and the “effect on GSK101 (50 nM)-induced [Ca2+]i increase” value (TRPV4; HC067 100 nM, RN1734 30 μM) was “inhibited”.

In the case of `CCCCCCCCCCCC(=O)c1c(O)c(C(=O)CCCCCCCCCCC)c(O)c(C2CC(c3ccc(O)cc3)Oc3cc(O)ccc32)c1O` (stereo not drawn) [YM26734], the “effect on Yoda1-mediated sustained [Ca2+]i elevation, YM26734 and AACOCF3 together” value (Piezo1 [1]) is reported as “significantly inhibited the Yoda1-mediated sustained elevation in [Ca^2+]i”, the “effect on Yoda1-induced sustained [Ca2+]i elevation, YM26734 and AACOCF3 together” value (Piezo1 [2]; Yoda1 25 μM) is reported as “blocked the Yoda1-induced sustained [Ca^2+]i elevation” and the “effect of the secretory PLA2 inhibitor alone on Yoda1-induced sustained [Ca2+]i elevation” value (Piezo1 [2]; YM26734 10 μM, Yoda1 25 μM) is reported as “substantial and capable of blocking the sustained [Ca^2+]i elevation”.

`C[C@H](CCC(=O)O)C[C@H](C)C[C@H](C)C(=O)/C=C(\O)[C@H](C)C[C@H](C)C/C=C/[C@@H](C)[C@@H](O)[C@@H](C)[C@@H](O)C[C@@H]1CC[C@@](C)([C@H]2CC[C@@](C)([C@@H](C)O)O2)O1` [ionomycin] was tested, and the “[Ca2+]i response to ionomycin after Yoda1 (25 μM) treatment” value (Piezo1 [1]; ionomycin 1 μM, mouse PSCs) was “All cells responded”.

In the case of “CCK: secretagogue that stimulates pancreatic enzyme secretion by increasing [Ca2+]i”, the “cell damage (LDH release) in WT vs Piezo1aci-KO acini” value (pancreatic acini [3]; CCK 1 nM) is reported as “produced comparable cell damage”, the “acinar cell death, both Yoda1 and CCK vs individual application” value (pancreatic acini [3]; Yoda1 50 μM + CCK 1 nM, WT acini) is reported as “acinar cell death was greater” and the “CCK-mediated trypsin activation, WT vs Piezo1aci-KO acini” value (pancreatic acini [6]; CCK 10 nM) is reported as “similar”. For the same molecule, the “trypsin activation (BZiPAR fluorescence)” value (pancreatic acini [6]; Yoda1 50 μM or CCK 10 nM) was “activated trypsin in pancreatic acini over time”, the “time to trypsin activation after application” value (pancreatic acini [6]; Yoda1 50 μM, CCK 10 nM) was over 20 min and the “time to mitochondrial depolarization after application” value (pancreatic acini [4]; Yoda1 50 μM, CCK 10 nM) was over 10 min.
